Measurements as given in US8163940B2, “Method for preparation of amorphous, anhydrous crystalline or hydrated crystalline docetaxel” (Samyang Genex Corporation, priority 2006, dated 2012).
“And” between values parts separate entries of the source, which are not always exact repeats. Identical values can stand only once.

Experiment: Stability of docetaxel dissolved and left standing in alcohols at 50° C. (HPLC purity and degradation degree)
Assay type: physicochemical
Conditions: dissolution and standing at 50° C.
Description: The purity and recovery rate of docetaxel in the present specification were calculated by quantity analysis using HPLC under the conditions of Table 2.
To evaluate the stability of docetaxel in the case that hydrated crystalline docetaxel is prepared by dissolution in alcohols at a high temperature, methanol and ethanol were each used as an organic solvent and dissolution temperature and standing temperature were 50° C., and change in purity of docetaxel and degradation degree were measured after letting it stand for 0, 1, 5, 10, and 24 hours.

CC(=O)O[C@@]12CO[C@@H]1C[C@H](O)[C@@]1(C)C(=O)[C@H](O)C3=C(C)[C@@H](OC(=O)[C@H](O)[C@@H](NC(=O)OC(C)(C)C)c4ccccc4)C[C@@](O)([C@@H](OC(=O)c4ccccc4)[C@H]21)C3(C)C [docetaxel]
7-epi-docetaxel Amounts Produced (EtOH, 0 hr): 0 area % | Change in Purity of Docetaxel (EtOH, 0 hr): 99.7480% | 7-epi-docetaxel Amounts Produced (EtOH, 1 hr): 0.4494 area % | Change in Purity of Docetaxel (EtOH, 1 hr): 99.2959% | 7-epi-docetaxel Amounts Produced (EtOH, 5 hr): 1.8948 area % | Change in Purity of Docetaxel (EtOH, 5 hr): 97.8546% | 7-epi-docetaxel Amounts Produced (EtOH, 10 hr): 2.9451 area % | Change in Purity of Docetaxel (EtOH, 10 hr): 96.8045% | 7-epi-docetaxel Amounts Produced (EtOH, 24 hr): 4.5544 area % | Change in Purity of Docetaxel (EtOH, 24 hr): 95.1952% | 7-epi-docetaxel Amounts Produced (MeOH, 0 hr): 0 area % | Change in Purity of Docetaxel (MeOH, 0 hr): 99.7469% | 7-epi-docetaxel Amounts Produced (MeOH, 1 hr): 4.0163 area % | Change in Purity of Docetaxel (MeOH, 1 hr): 95.7% and 95.7399% | 7-epi-docetaxel Amounts Produced (MeOH, 5 hr): 17.2282 area % | Change in Purity of Docetaxel (MeOH, 5 hr): 81.8743% | 7-epi-docetaxel Amounts Produced (MeOH, 10 hr): 28.4728 area % | Change in Purity of Docetaxel (MeOH, 10 hr): 69.3707% | 7-epi-docetaxel Amounts Produced (MeOH, 24 hr): 41.5352 area % | Change in Purity of Docetaxel (MeOH, 24 hr): 50.7338%
